Data reported in paper PMC6344527, “Toxicity and possible mechanisms of action of honokiol from Magnolia denudata seeds against four mosquito species” (Scientific Reports, 2019).
Converted amounts (≈) assume the structure as drawn. Read-outs that look alike come from different tables or passages of the source.

What was measured:
[1] = tested on: whole-body homogenate from third-instar Aedes aegypti larvae (adenylate cyclase activity); assay: determination of cyclic AMP levels (octopamine-sensitive adenylate cyclase activity); format: biochemical; settings: 100 μM; compared with control group / octopamine
Protocol: The method of Perumalsamy et al.[42] was used to assess the in vitro octopamine-sensitive adenylate cyclase activity of the test compounds. In brief, whole bodies of 75 Ae. aegypti larvae (106.2 mg) were homogenized in 500 µL of 2 mM Tris-maleate buffer (pH 7.4) containing 0.8 mM ethylene glycol tetraacetic acid (EGTA). The adenylate cyclase activity was determined using the cAMP Biotrak Enzymeimmunoassay system according to the manufacturer’s protocol. The assay was conducted in a total volume of 100 µL containing 80 mM Tris-maleate buffer, 5 mM theophylline, 2 mM MgSO4, 0.5 mM adenosine triphosphate (ATP), 0.2 mM EGTA, 50 µL of whole-body homogenate (equivalent to 4.12 µg protein), and 1 µL of the test compounds in Tris-maleate buffer containing 0.2% ethanol. After incubation at 20 °C for 5 min, the reaction was initiated by addition of ATP. Incubation was performed at 30 °C for 3 min in a shaking water bath. The reaction was stopped by boiling for 2 min, and then, the assay tube was cooled and centrifuged at 8,000 × g for 10 min. Fifty microliters of the supernatant were assayed for cAMP levels.
Polystyrene microplates (1 strip of 8 wells) coated with a goat anti-mouse polyclonal antibody were used. Fifty microliters of a mouse monoclonal antibody solution were added to each well except for the blank wells (or the nonspecific binding wells). The wells covered with the adhesive strip were incubated at 25 °C for 1 h in a shaking incubator (480 rpm). After washing with 400 µL of wash buffer four times, 50 μL of the two neolignan samples for cAMP determination and cAMP standard were added to wells. Control, blank (nonspecific binding), and zero standard wells were supplemented with 50 μL of a diluent RD5-55 buffer. […] The optical densities at 450 and 540 nm were determined using the microplate reader described above. The readings at 540 nm were subtracted from the readings at 450 nm. The cAMP concentrations are expressed as nmol/µg protein. The results are expressed as the means ± SEs of triplicate samples from three independent experiments.

mosquito species larvae = settings: cited from earlier work
[2] = tested on: third-instar larvae of insecticide-susceptible Culex pipiens pallens; assay: contact mortality bioassay, 24 h exposure; format: in vivo; settings: Table 6, structure-activity series, 24 h exposure; for LC50: Culex pipiens, 24 h, read-out: LC50 (mg/L) (95% CI)
Protocol: (§1) A contact mortality bioassay[25] was used to evaluate the toxicity of all compounds against third-instar larvae of the four mosquito species. Each test compound in methanol was suspended in DW with Triton X-100 (20 µL/L). Groups of 20 mosquito larvae were separately placed into paper cups (270 mL) containing each compound solution (250 mL). […] Negative controls consisted of a methanol–Triton X-100 solution in DW.
(§2) Treated and control (methanol–Triton X-100 solution only) larvae were maintained under the same conditions as those used for colony maintenance without providing food. Larval mortalities were determined 24 h post-treatment. […] All treatments were performed three times using 20 larvae per replicate.
(§3) The concentration of the test compounds required to produce 50% AChE inhibitory activity (IC50) was determined using the SAS 9.13 program (Cary: SAS Institute; 2014). Concentration-mortality data were subjected to probit analysis using the SAS 9.13 program. […] Statistical analyses were performed using the SAS 9.13 program. Multiple linear regression and correlation analysis were performed using the SPSS 24 program (Armonk: IBM Corp.; 2016).

[3] = tested on: third-instar larvae of insecticide-susceptible Aedes aegypti; assay: contact mortality bioassay, 24 h exposure; format: in vivo; settings: Table 7, structure-activity series, 24 h exposure; for LC50: Aedes aegypti, 24 h, read-out: LC50 (mg/L) (95% CI)
Protocol: as §1, §2, §3

[4] = biological target: acetylcholinesterase (AChE) from third-instar Ae. aegypti larvae (Aedes aegypti, UniProt A4GND7); assay: acetylcholinesterase inhibition assay; format: biochemical; settings: based on IC50 values
Protocol: The in vitro AChE inhibitory activity of the test compounds was assessed according to the method of Perumalsamy et al.[42]. Third-instar Ae. aegypti larvae were used in all experiments. Whole bodies of 50 larvae were homogenized in 1 mL of ice-cold 0.1 M phosphate buffer (pH 8.0) using a glass tissue homogenizer. After filtering through cheesecloth, the homogenate was centrifuged at 1,000 × g at 4 °C for 5 min. The supernatant was used directly as the enzyme source for AChE. The protein levels were determined using the Bradford Protein Assay Kit (Bio-Rad Laboratories, Hercules, CA, USA) using BSA as the standard. The reaction mixture consisted of 50 µL of the crude enzyme preparation (4.3–4.8 µg protein equivalents), 150 µL of 0.1 M phosphate buffer, 20 µL of 3 mM DTNB in phosphate buffer (pH 7.0), and 1 µL of various concentrations of each test compound in ethanol. The reaction mixture was incubated at 30 °C for 5 min, and 20 µL of 32 mM ATChI was then added to the mixture. After incubation for 30 min, the reaction was terminated by adding 20 µL of 5 mM eserine salicylate. Absorbance was recorded at 412 nm using a VersaMax microplate reader (Molecular Devices, Sunnyvale, CA, USA). […] The results are expressed as the means ± standard errors (SEs) of triplicate samples from three independent experiments.
as §3

acetylcholinesterase (AChE) from third-instar Ae. aegypti larvae, sequence (A4GND7 37-679): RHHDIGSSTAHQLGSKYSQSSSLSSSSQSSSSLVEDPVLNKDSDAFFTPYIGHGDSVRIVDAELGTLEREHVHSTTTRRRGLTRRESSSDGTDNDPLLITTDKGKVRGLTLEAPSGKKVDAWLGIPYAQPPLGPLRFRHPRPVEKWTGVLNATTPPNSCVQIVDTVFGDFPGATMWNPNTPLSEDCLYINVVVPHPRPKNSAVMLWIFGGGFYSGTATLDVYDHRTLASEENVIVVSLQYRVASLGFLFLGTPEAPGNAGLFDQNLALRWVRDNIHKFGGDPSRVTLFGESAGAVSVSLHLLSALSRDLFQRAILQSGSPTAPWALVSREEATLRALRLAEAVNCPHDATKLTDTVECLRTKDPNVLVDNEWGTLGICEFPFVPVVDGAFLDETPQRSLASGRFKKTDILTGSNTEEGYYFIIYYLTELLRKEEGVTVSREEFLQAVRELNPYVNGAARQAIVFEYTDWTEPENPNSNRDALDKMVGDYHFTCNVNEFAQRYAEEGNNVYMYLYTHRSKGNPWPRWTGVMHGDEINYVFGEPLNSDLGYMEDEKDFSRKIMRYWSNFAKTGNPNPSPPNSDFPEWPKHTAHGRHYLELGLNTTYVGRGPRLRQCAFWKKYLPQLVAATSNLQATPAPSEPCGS

NCC(O)c1ccc(O)cc1 (stereo not shown) [octopamine, reference compound]
cAMP levels [1]: did not differ significantly

CCCCCCCC/C=C\CCCCCCCC(=O)O [oleic acid]
LC50 (mosquito species larvae; flavonoids and fatty acids): 18.07 to 18.45 µg/mL

C=C[C@@H](O)C#CC#C[C@@H](O)/C=C\CCCCCCC [falcarindiol]
LC50 (mosquito species larvae; acetylenic alcohols): 6.51 µg/mL (≈ 25 µM)

CCOC(=O)C=Cc1ccc(OC)cc1 [ethyl p-methoxycinnamate]
LC50 (mosquito species larvae; phenylpropanoids): 12.3 to 20.7 µg/mL

(−)-asarinin
LC50 (mosquito species larvae; lignans): 10.49 to 16.49 µg/mL

C=C[C@H](O)C#CC#CC/C=C\CCCCCCC [falcarinol]
LC50 (mosquito species larvae; acetylenic alcohols): 3.49 µg/mL (≈ 14.3 µM)

isoeugenol
LC90 (mg/L) (95% CI) [2]: 138.1 (124.4–164.5) mg/L
LC90 (mg/L) (95% CI) [3]: 137.2 (124.3–161.2) mg/L

N#C[C@@H](O[C@@H]1O[C@H](CO)[C@@H](O)[C@H](O)[C@H]1O)c1ccc(O)cc1 [dhurrin]
LC50 (mosquito species larvae; cyanogenic glycosides): 12 µg/mL (≈ 38.5 µM)

C=CCc1cccc(OC)c1O [o-Eugenol, o-eugenol]
LC50 [2]: 7.46 mg/L (≈ 45.4 µM)
LC90 (mg/L) (95% CI) [2]: 23.13 (18.42–33.49) mg/L
LC50 [3]: 8.84 mg/L (≈ 53.8 µM)
LC90 (mg/L) (95% CI) [3]: 24.01 (19.52–33.06) mg/L
AChE inhibitory activity (in words) [4]: relatively weak AChE inhibitors

CCc1ccc(O)cc1 [p-Ethylphenol, p-ethylphenol]
LC50 [2]: 8.3 mg/L (≈ 67.9 µM)
LC90 (mg/L) (95% CI) [2]: 25.86 (20.36–38.21) mg/L
LC50 [3]: 9.03 mg/L (≈ 73.9 µM)
LC90 (mg/L) (95% CI) [3]: 30.57 (23.29–48.51) mg/L
AChE inhibitory activity (in words) [4]: relatively weak AChE inhibitors
